Reference: PubChem BioAssay (NCI)
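Assay format: 96-well plates, 48-hour exposure. At the TGI there is no net growth.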

Tests used:
Test in all cases: NCI tumour cell line growth inhibition, 48 h
786-0 renal = system: 786-0 renal
A498 renal = system: A498 renal
A549 NSCLC = system: A549 NSCLC
ACHN renal = system: ACHN renal
BT-549 breast = system: BT-549 breast
CAKI-1 renal = system: CAKI-1 renal
CCRF-CEM leukemia = system: CCRF-CEM leukemia
COLO 205 colon = system: COLO 205 colon
DU-145 prostate = system: DU-145 prostate
EKVX NSCLC = system: EKVX NSCLC
HCC-2998 colon = system: HCC-2998 colon
HCT-116 colon = system: HCT-116 colon
HCT-15 colon = system: HCT-15 colon
HOP-62 NSCLC = system: HOP-62 NSCLC
HOP-92 NSCLC = system: HOP-92 NSCLC
HS 578T breast = system: HS 578T breast
HT29 colon = system: HT29 colon
IGROV1 ovarian = system: IGROV1 ovarian
K-562 leukemia = system: K-562 leukemia
KM12 colon = system: KM12 colon
LOX IMVI melanoma = system: LOX IMVI melanoma
M14 melanoma = system: M14 melanoma
MALME-3M melanoma = system: MALME-3M melanoma
MCF7 breast = system: MCF7 breast
MDA-MB-231 breast = system: MDA-MB-231 breast
MDA-MB-435 = system: MDA-MB-435
MDA-N = system: MDA-N
MOLT-4 leukemia = system: MOLT-4 leukemia
NCI-H226 lung = system: NCI-H226 lung
NCI-H23 lung = system: NCI-H23 lung
NCI-H460 lung = system: NCI-H460 lung
NCI-H522 lung = system: NCI-H522 lung
NCI/ADR-RES ovarian = system: NCI/ADR-RES ovarian
OVCAR-3 ovarian = system: OVCAR-3 ovarian
OVCAR-4 ovarian = system: OVCAR-4 ovarian
OVCAR-5 ovarian = system: OVCAR-5 ovarian
OVCAR-8 ovarian = system: OVCAR-8 ovarian
PC-3 prostate = system: PC-3 prostate
RPMI-8226 leukemia = system: RPMI-8226 leukemia
RXF 393 renal = system: RXF 393 renal
SF-268 CNS = system: SF-268 CNS
SF-295 CNS = system: SF-295 CNS
SF-539 CNS = system: SF-539 CNS
SK-MEL-2 melanoma = system: SK-MEL-2 melanoma
SK-MEL-28 melanoma = system: SK-MEL-28 melanoma
SK-MEL-5 melanoma = system: SK-MEL-5 melanoma
SK-OV-3 ovarian = system: SK-OV-3 ovarian
SN12C renal = system: SN12C renal
SNB-19 CNS = system: SNB-19 CNS
SNB-75 CNS = system: SNB-75 CNS
SR leukemia = system: SR leukemia
SW-620 colon = system: SW-620 colon
T-47D breast = system: T-47D breast
TK-10 renal = system: TK-10 renal
U251 CNS = system: U251 CNS
UACC-257 melanoma = system: UACC-257 melanoma
UACC-62 melanoma = system: UACC-62 melanoma
UO-31 renal = system: UO-31 renal
HL-60(TB) leukemia = system: HL-60(TB) leukemia

Measured: TGI

O=c1nc2n(CCO)c(-c3ccccc3)c(-c3ccccc3)nc-2c(=O)[nH]1
> 100 µM: 786-0 renal | A498 renal | A549 NSCLC | ACHN renal | BT-549 breast | CAKI-1 renal | CCRF-CEM leukemia | COLO 205 colon | DU-145 prostate | EKVX NSCLC | HCC-2998 colon | HCT-116 colon | HCT-15 colon | HOP-62 NSCLC | HOP-92 NSCLC | HS 578T breast | HT29 colon | IGROV1 ovarian | K-562 leukemia | KM12 colon | LOX IMVI melanoma | M14 melanoma | MALME-3M melanoma | MCF7 breast | MDA-MB-231 breast | MDA-MB-435 | MDA-N | MOLT-4 leukemia | NCI-H226 lung | NCI-H23 lung | NCI-H460 lung | NCI-H522 lung | NCI/ADR-RES ovarian | OVCAR-3 ovarian | OVCAR-4 ovarian | OVCAR-5 ovarian | OVCAR-8 ovarian | PC-3 prostate | RPMI-8226 leukemia | RXF 393 renal | SF-268 CNS | SF-295 CNS | SF-539 CNS | SK-MEL-2 melanoma | SK-MEL-28 melanoma | SK-MEL-5 melanoma | SK-OV-3 ovarian | SN12C renal | SNB-19 CNS | SNB-75 CNS | SR leukemia | SW-620 colon | T-47D breast | TK-10 renal | U251 CNS | UACC-257 melanoma | UACC-62 melanoma | UO-31 renal

CCC(=O)N(c1ccccc1)C(C)CN1CCC(O)(c2ccccc2)CC1 (configuration not stated)
> 100 µM: 786-0 renal | A498 renal | A549 NSCLC | ACHN renal | BT-549 breast | CAKI-1 renal | CCRF-CEM leukemia | COLO 205 colon | DU-145 prostate | EKVX NSCLC | HCT-116 colon | HCT-15 colon | HL-60(TB) leukemia | HOP-62 NSCLC | HOP-92 NSCLC | HS 578T breast | HT29 colon | IGROV1 ovarian | K-562 leukemia | LOX IMVI melanoma | M14 melanoma | MALME-3M melanoma | MCF7 breast | MDA-MB-231 breast | MDA-MB-435 | MDA-N | MOLT-4 leukemia | NCI-H226 lung | NCI-H23 lung | NCI-H522 lung | NCI/ADR-RES ovarian | OVCAR-3 ovarian | OVCAR-4 ovarian | OVCAR-5 ovarian | OVCAR-8 ovarian | PC-3 prostate | RPMI-8226 leukemia | RXF 393 renal | SF-268 CNS | SF-295 CNS | SF-539 CNS | SK-MEL-2 melanoma | SK-MEL-28 melanoma | SK-MEL-5 melanoma | SK-OV-3 ovarian | SN12C renal | SNB-19 CNS | SNB-75 CNS | SR leukemia | T-47D breast | TK-10 renal | U251 CNS | UACC-257 melanoma | UACC-62 melanoma | UO-31 renal

Cc1ccc2c(c1)C(C1Cc3c(C)cccc3C1=O)OC2=O (configuration not stated)
> 100 µM: 786-0 renal | A498 renal | A549 NSCLC | ACHN renal | BT-549 breast | CAKI-1 renal | CCRF-CEM leukemia | COLO 205 colon | DU-145 prostate | EKVX NSCLC | HCC-2998 colon | HCT-116 colon | HCT-15 colon | HL-60(TB) leukemia | HOP-62 NSCLC | HOP-92 NSCLC | HS 578T breast | HT29 colon | IGROV1 ovarian | K-562 leukemia | KM12 colon | LOX IMVI melanoma | M14 melanoma | MALME-3M melanoma | MCF7 breast | MDA-MB-231 breast | MDA-MB-435 | MDA-N | MOLT-4 leukemia | NCI-H226 lung | NCI-H23 lung | NCI-H460 lung | NCI-H522 lung | NCI/ADR-RES ovarian | OVCAR-3 ovarian | OVCAR-4 ovarian | OVCAR-5 ovarian | OVCAR-8 ovarian | PC-3 prostate | RPMI-8226 leukemia | RXF 393 renal | SF-268 CNS | SF-295 CNS | SF-539 CNS | SK-MEL-2 melanoma | SK-MEL-28 melanoma | SK-MEL-5 melanoma | SK-OV-3 ovarian | SN12C renal | SNB-19 CNS | SNB-75 CNS | SR leukemia | SW-620 colon | T-47D breast | TK-10 renal | U251 CNS | UACC-257 melanoma | UACC-62 melanoma | UO-31 renal
